Experiments:
[1] = tested on: Rat; test: concentration in liver after dosing; conditions: 3360 h; dosed: Perfluorodecanoic acid; 10 mg/kg; oral; Female; Harlan Sprague Dawley
[2] = tested on: Rat; test: concentration in plasma after dosing; conditions: dosed: Perfluorodecanoic acid, 2 mg/kg, iv, Male, F344
[3] = tested on: Rat; test: concentration in plasma after dosing; conditions: 2520 h; dosed: Perfluorodecanoic acid; 2 mg/kg; iv; Male; F344
[4] = tested on: Rat; test: concentration in plasma after dosing; conditions: dosed: Perfluorodecanoic acid, 2 mg/kg, oral, Male, Harlan Sprague Dawley
[5] = tested on: Rat; test: concentration in plasma after dosing; conditions: 10 min; dosed: Di-n-butyl phthalate; 20 mg/kg; iv; Male; Sprague-Dawley
[6] = tested on: Rat; test: concentration in plasma after dosing; conditions: 6 h; dosed: Di-n-butyl phthalate; 100 mg/kg; oral; Male; Sprague-Dawley
[7] = tested on: Rat; test: concentration in plasma after dosing; conditions: 15 h; dosed: Di-n-butyl phthalate; 100 mg/kg; oral; Male; Sprague-Dawley
[8] = tested on: Rat; test: concentration in plasma after dosing; conditions: dosed: dichloroacetic acid, 100 mg/kg, oral, Male, F344
[9] = tested on: rat; test: concentration in plasma after dosing; conditions: dosed: trichloroethylene, 600.4 ppm, inhalation, duration: 4 hr, female, Fischer-344
[10] = tested on: rat; test: concentration in plasma after dosing; negative times count back from the end of exposure; conditions: dosed: trichloroethylene, inhalation, duration: 4 hr, female, F344
[11] = tested on: Rat; test: concentration in heart after dosing; conditions: 20 min; dosed: Bis 2-Chloroethoxy Methane; 20 mg/kg; iv; Male; F344
[12] = tested on: Rat; test: concentration in plasma after dosing; conditions: 20 min; dosed: Bis 2-Chloroethoxy Methane; 20 mg/kg; iv; Male; F344
[13] = tested on: Rat; test: concentration in plasma after dosing; conditions: 5 h; dosed: Bis 2-Chloroethoxy Methane; 20 mg/kg; iv; Female; F344
[14] = tested on: Rat; test: concentration in plasma after dosing; conditions: 5 h; dosed: Bis 2-Chloroethoxy Methane; 20 mg/kg; iv; Male; F344
[15] = tested on: Rat; test: concentration in plasma after dosing; conditions: 3 h; dosed: Bis 2-Chloroethoxy Methane; 20 mg/kg; iv; Male; F344
[16] = tested on: Rat; test: concentration in plasma after dosing; conditions: 4 h; dosed: Bis 2-Chloroethoxy Methane; 20 mg/kg; iv; Female; F344
[17] = tested on: Rat; test: concentration in plasma after dosing; conditions: 40 min; dosed: Bis 2-Chloroethoxy Methane; 20 mg/kg; iv; Female; F344
[18] = tested on: Rat; test: concentration in brain after dosing; conditions: 0.5 h; dosed: Fluorotelomer alcohol 8+2; 24 mg/kg; oral; Male; Harlan Sprague Dawley
[19] = tested on: Rat; test: concentration in brain after dosing; conditions: 1 h; dosed: Fluorotelomer alcohol 8+2; 80 mg/kg; oral; Female; Harlan Sprague Dawley
[20] = tested on: Rat; test: concentration in brain after dosing; conditions: 12 h; dosed: Fluorotelomer alcohol 8+2; 24 mg/kg; oral; Male; Harlan Sprague Dawley
[21] = tested on: Rat; test: concentration in kidney after dosing; conditions: 1 h; dosed: Fluorotelomer alcohol 8+2; 80 mg/kg; oral; Female; Harlan Sprague Dawley
[22] = tested on: Rat; test: concentration in plasma after dosing; conditions: dosed: Fluorotelomer alcohol 8+2, 24 mg/kg, oral, Male, Harlan Sprague Dawley
[23] = tested on: Rat; test: concentration in plasma after dosing; conditions: dosed: Fluorotelomer alcohol 8+2, 12 mg/kg, iv, Male, F344
[24] = tested on: Rat; test: concentration in plasma after dosing; conditions: dosed: Fluorotelomer alcohol 8+2, 12 mg/kg, iv, Male, F344; remark: listed apart in the source
[25] = tested on: Rat; test: concentration in plasma after dosing; conditions: dosed: Fluorotelomer alcohol 8+2, 12 mg/kg, oral, Male, Harlan Sprague Dawley
[26] = tested on: Rat; test: concentration in liver after dosing; conditions: 6.667 h; dosed: Thiodiglycolic Acid; 20 mg/kg; iv; Female; Harlan Sprague Dawley
[27] = tested on: Rat; test: concentration in heart after dosing; conditions: 3 h; dosed: Thiodiglycolic Acid; 20 mg/kg; iv; Female; Harlan Sprague Dawley
[28] = tested on: Rat; test: concentration in liver after dosing; conditions: 6.667 h; dosed: Thiodiglycolic Acid; 20 mg/kg; iv; Female; Harlan Sprague Dawley; remark: listed apart in the source
[29] = tested on: Rat; test: concentration in heart after dosing; conditions: 2 h; dosed: Thiodiglycolic Acid; 20 mg/kg; iv; Female; Harlan Sprague Dawley
[30] = tested on: Rat; test: concentration in thymus after dosing; conditions: 1 h; dosed: Thiodiglycolic Acid; 20 mg/kg; iv; Female; Harlan Sprague Dawley
[31] = tested on: Rat; test: concentration in thymus after dosing; conditions: 3 h; dosed: Thiodiglycolic Acid; 20 mg/kg; iv; Female; Harlan Sprague Dawley
[32] = tested on: Rat; test: concentration in thymus after dosing; conditions: 8 h; dosed: Thiodiglycolic Acid; 20 mg/kg; iv; Female; Harlan Sprague Dawley
[33] = tested on: Rat; test: concentration in plasma after dosing; conditions: 18 h; dosed: Primidone; 30 mg/kg; oral; Female; F344

O=C(O)C(F)(F)C(F)(F)C(F)(F)C(F)(F)C(F)(F)C(F)(F)C(F)(F)C(F)(F)C(F)(F)F [Perfluorodecanoic acid]
Conditions	concentration in liver [ng/g]	concentration in plasma [ng/mL]
[1]	7670	–
[3]	–	209

concentration in plasma [ng/mL]
Conditions	1 h	6 h	192 h	864 h	2520 h
[2]	–	6360	–	1550	–
[4]	4030	–	4670	–	645

CCCCOC(=O)c1ccccc1C(=O)O [Mono-n-butyl phthalate]
Conditions	concentration in plasma [ng/mL]
[5]	31200
[6]	16900
[7]	1250

O=C(O)C(Cl)Cl [dichloroacetic acid]
[8]
Conditions	concentration in plasma [ng/mL]
8 h	25000
20 min	15900

O=C(O)C(Cl)(Cl)Cl [trichloroacetic acid]
[9]
Conditions	concentration in plasma [ng/mL]
0.1633 h	10200
0.5306 h	11400
0.898 h	11800
1.633 h	13400
2.122 h	15800
5.061 h	18300
21.1 h	5730
29.06 h	2750
46.08 h	1150

[10]
Conditions	concentration in plasma [ng/mL]
0.2413 h, 600.4 ppm	25200
0.5005 h, 600.4 ppm	28200
0.963 h, 600 ppm	24500
2.113 h, 600 ppm	33800
4.901 h, 600.4 ppm	36600
5.077 h, 600 ppm	46200
20.89 h, 600.4 ppm	8380
21.02 h, 600 ppm	25300
28.48 h, 600.4 ppm	3970
29.96 h, 600 ppm	14100
30 s, 600 ppm	21100
44.93 h, 600.4 ppm	1220
45.37 h, 600 ppm	8190
241 s, 600.4 ppm	15900

concentration in plasma [ng/mL], [10], during exposure
Conditions	-3.75 h	-3.292 h	-0.5889 h
600 ppm	5790	–	–
600.4 ppm	–	1380	15300

ClCCOCOCCCl [Bis 2-Chloroethoxy Methane]
Conditions	concentration in heart [ng/g]	concentration in plasma [ng/mL]
[11]	6660	–
[12]	–	5580
[13]	–	17.2
[14]	–	36.5
[15]	–	90.6
[16]	–	63.4
[17]	–	1410

OCCC(F)(F)C(F)(F)C(F)(F)C(F)(F)C(F)(F)C(F)(F)C(F)(F)C(F)(F)F [Fluorotelomer alcohol 8+2]
Conditions	concentration in brain [ng/g]	concentration in kidney [ng/g]
[18]	1810	–
[19]	3370	–
[20]	151	–
[21]	–	3330

Conditions	concentration in plasma [ng/mL]
[22], 5 min	6.79
[22], 9 h	23.5
[23], 0.75 h	818
[23], 12 h	14.2
[24], 1 h	619
[24], 6 h	38.5
[25], 1 h	255
[25], 24 h	3.4

O=C(O)CSCC(=O)O [Thiodiglycolic Acid]
Conditions	concentration in heart [ng/g]	concentration in liver [ng/g]	concentration in thymus [ng/g]
[26]	–	7630	–
[27]	558	–	–
[28]	–	1600	–
[29]	1420	–	–
[30]	–	–	3010
[31]	–	–	2120
[32]	–	–	544

CCC1(c2ccccc2)C(=O)NC(=O)NC1=O [Phenobarbital]
Conditions	concentration in plasma [ng/mL]
[33]	1060

— EPA's CvTdb concentration-time database
